Data: the supplement of paper PMC10307832

Legend:
Test in all cases: relative viability (nuclei count vs DMSO), 5 days (fraction); higher = more cells survive
[1] = compound: CS(=O)(=O)N1CCN(Cc2cc3nc(-c4cccc5[nH]ncc45)nc(N4CCOCC4)c3s2)CC1 [Pictilisib] + CS(=O)(=O)CCNCc1ccc(-c2ccc3ncnc(Nc4ccc(OCc5cccc(F)c5)c(Cl)c4)c3c2)o1 [Lapatinib] (partner 2 µM)
Outline: (§1)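 After 5 days of treatment, lung cancer cells in 1536-well plates were fixed and stained in a single step (final 0.05% Triton X-100, 1% formaldehyde, 1 ug/ml Hoechst) and their nuclei counted on 4× images. Treatment had been applied by pin tool the day after seeding as one drug alone or as a fixed anchor-drug dose with five library-drug doses (not always all listed) in √10 steps. Relative viability is the nuclei count of treated wells divided by that of vehicle wells, and values are medians of duplicate plates.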

[2] = compound: CS(=O)(=O)N1CCN(Cc2cc3nc(-c4cccc5[nH]ncc45)nc(N4CCOCC4)c3s2)CC1 [Pictilisib] + C[C@@H](Oc1cc(-c2cnn(C3CCNCC3)c2)cnc1N)c1c(Cl)ccc(F)c1Cl [Crizotinib] (partner 1 µM)
Outline: as §1

[3] = compound: CS(=O)(=O)N1CCN(Cc2cc3nc(-c4cccc5[nH]ncc45)nc(N4CCOCC4)c3s2)CC1 [Pictilisib] + O=C(c1cc(Cc2n[nH]c(=O)c3ccccc23)ccc1F)N1CCN(C(=O)C2CC2)CC1 [Olaparib] (partner 8 µM)
Outline: as §1

[4] = compound: NC1(c2ccc(-c3nc4ccn5c(=O)[nH]nc5c4cc3-c3ccccc3)cc2)CCC1 [MK-2206] + CC(=O)c1c(C)c2cnc(Nc3ccc(N4CCNCC4)cn3)nc2n(C2CCCC2)c1=O [Palbociclib] (partner 0.5 µM)
Outline: as §1

[5] = compound: NC1(c2ccc(-c3nc4ccn5c(=O)[nH]nc5c4cc3-c3ccccc3)cc2)CCC1 [MK-2206] + Cc1nc(NC(=O)N2CCC[C@H]2C(N)=O)sc1-c1ccnc(C(C)(C)C(F)(F)F)c1 [Alpelisib] (partner 2 µM)
Outline: as §1

## UMC-11
[1]; first compound 0.02 µM
  relative viability: 1.09
[1]; first compound 0.06325 µM
  relative viability: 1.21
[1]; first compound 0.6325 µM
  relative viability: 1.03
[1]; first compound 2 µM
  relative viability: 0.887
[2]; first compound 0.02 µM
  relative viability: 0.633
[2]; first compound 0.06325 µM
  relative viability: 0.887
[2]; first compound 0.6325 µM
  relative viability: 0.733
[2]; first compound 2 µM
  relative viability: 0.58
[3]; first compound 0.02 µM
  relative viability: 0.822
[3]; first compound 0.06325 µM
  relative viability: 0.344
[3]; first compound 0.6325 µM
  relative viability: 0.666
[3]; first compound 2 µM
  relative viability: 0.384
[4]; first compound 0.01 µM
  relative viability: 0.318
[4]; first compound 0.03162 µM
  relative viability: 0.359
[4]; first compound 0.3162 µM
  relative viability: 0.288
[4]; first compound 1 µM
  relative viability: 0.317
[5]; first compound 0.01 µM
  relative viability: 1.03
[5]; first compound 0.03162 µM
  relative viability: 0.908
[5]; first compound 0.3162 µM
  relative viability: 1.1
[5]; first compound 1 µM
  relative viability: 0.994
